US20240368084A1, “STING MODULATORS, COMPOSITIONS, AND METHODS OF USE” (University of South Florida, priority 2021, published 2024)

Biological target: His-labeled STING (Homo sapiens, UniProt Q86WV6)
Experiment: Microscale thermophoresis (MST) binding assay
Details: for Confidence: confidence class by MST shift units; for Dissociation Constant: MST, incubating with 50 nM 2,3-cGAMP
Protocol: Nanotemper Monolith NT.115 labeled thermophoresis machine was used with standard treated capillary tubes using samples comprised of labeled protein and titrations of small molecule in 1×PBS. […] Detection of the protein was performed using the blue detection channel with LED excitation power set to 90% and MST set to high allowing 3 s prior to MST on to check for initial fluorescence differences, 25 s for thermophoresis, and 3 s for regeneration after MST off.
Detection of the protein was performed using the blue detection channel with LED excitation power set to 90% and MST set to high allowing 3 s prior to MST on to check for initial fluorescence differences, 25 s for thermophoresis, and 3 s for regeneration after MST off. Analysis was performed using M.O. Affinity Analysis Software with difference between initial fluorescence measured in the first 5 s as compared with thermophoresis at 15 s at 15 different analyte concentrations ranging from 100 zM to 100 μM and exported into Graphpad Prism v.8 using a Log inhibitor v. response 4 parameter fit.
Confidence is categorized as follows: 1=low confidence (<2 MST shift unit−non-statistical); 2=mid confidence (2-3 MST shift units−intermediate); 3=high confidence ([…]−statistical). Dissociation constants are categorized as follows: A<1 μM; 1 μM≤B<100 μM; […]; 10 μM≤D<100 μM.
Reference compounds were assayed using the same protocol.

His-labeled STING, sequence (Q86WV6 whole entry H232R): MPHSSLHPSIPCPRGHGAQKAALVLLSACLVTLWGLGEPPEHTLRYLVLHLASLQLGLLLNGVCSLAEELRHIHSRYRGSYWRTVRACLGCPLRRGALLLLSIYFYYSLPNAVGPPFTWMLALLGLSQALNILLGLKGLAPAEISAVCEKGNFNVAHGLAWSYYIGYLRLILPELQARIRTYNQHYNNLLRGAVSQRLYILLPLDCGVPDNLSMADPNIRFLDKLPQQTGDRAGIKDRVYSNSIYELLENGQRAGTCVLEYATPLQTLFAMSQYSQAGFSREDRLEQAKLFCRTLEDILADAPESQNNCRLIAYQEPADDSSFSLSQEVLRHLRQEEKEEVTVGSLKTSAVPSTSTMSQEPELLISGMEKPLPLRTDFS

Dissociation Constant	SMILES	Confidence
	Cc1c(Cl)cccc1Nc1ncccc1COCC(O)CO (stereo not drawn) [Compound 1]	1 (1=low confidence (<2 MST shift unit−non-statistical))
	Cc1c(Cl)cccc1Nc1ncccc1CO [Compound 4]	2 (2=mid confidence (2-3 MST shift units−intermediate))
	COC(=O)c1cccnc1Nc1cccc(Cl)c1C [Compound 9]	3 (3=high confidence (>2 MST shift units−statistical))
Low R^2	CCOC(=O)c1cccnc1Nc1cccc(Cl)c1C [Compound 10]	1 (1=low confidence (<2 MST shift unit−non-statistical))
	CCCOC(=O)c1cccnc1Nc1cccc(Cl)c1C [Compound 11]	1 (1=low confidence (<2 MST shift unit−non-statistical))
	C#CCOC(=O)c1cccnc1Nc1cccc(Cl)c1C [Compound 13]	2 (2=mid confidence (2-3 MST shift units−intermediate))
	CNC(=O)c1cccnc1Nc1cccc(Cl)c1C [Compound 14]	2 (2=mid confidence (2-3 MST shift units−intermediate))
	CCNC(=O)c1cccnc1Nc1cccc(Cl)c1C [Compound 15]	1 (1=low confidence (<2 MST shift unit−non-statistical))
	CCCNC(=O)c1cccnc1Nc1cccc(Cl)c1C [Compound 16]	2 (2=mid confidence (2-3 MST shift units−intermediate))
	C=CCNC(=O)c1cccnc1Nc1cccc(Cl)c1C [Compound 17]	1 (1=low confidence (<2 MST shift unit−non-statistical))
	Cc1c(Cl)cccc1Nc1ncccc1C(=O)OCC(O)CO (stereo not drawn) [Compound 19]	1 (1=low confidence (<2 MST shift unit−non-statistical))
	CCCCC(=O)c1cccnc1Nc1cccc(Cl)c1C [Compound 21]	2 (2=mid confidence (2-3 MST shift units−intermediate))
	Cc1c(Br)cccc1Nc1ncccc1C(=O)O [Compound 23]	3 (3=high confidence (>2 MST shift units−statistical))
	COC(=O)c1cccnc1Nc1cccc(Br)c1C [Compound 24]	1 (1=low confidence (<2 MST shift unit−non-statistical))
	Cc1c(Nc2ncccc2C(=O)O)cccc1C(F)(F)F [Compound 27]	3 (3=high confidence (>2 MST shift units−statistical))
No Binding	Cc1c(Cl)cccc1Nc1ccccc1C(=O)O [Compound 36, Tolfenamic acid, reference compound]	1 (1=low confidence (<2 MST shift unit−non-statistical))
	Cc1c(Cl)cccc1Nc1ncccc1C(=O)OCCCOC(=O)c1cccnc1Nc1cccc(Cl)c1C [Compound 41]	1 (1=low confidence (<2 MST shift unit−non-statistical))
	Cc1c(Br)cccc1Nc1ncccc1C(=O)OCC(O)CO (stereo not drawn) [Compound 42]	2 (2=mid confidence (2-3 MST shift units−intermediate))
	Cc1c(F)cccc1Nc1ncccc1C(=O)OCC(O)CO (stereo not drawn) [Compound 43]	1 (1=low confidence (<2 MST shift unit−non-statistical))
	COC(=O)c1cccnc1Nc1cccc(F)c1C [Compound 44]	1 (1=low confidence (<2 MST shift unit−non-statistical))
No Binding	Cc1cccc(Nc2ccccc2C(=O)O)c1C [Compound 45]	1 (1=low confidence (<2 MST shift unit−non-statistical))
No Binding	Cc1cccc(Nc2ccccc2C(=O)OCC(O)CO)c1C (stereo not drawn) [Compound 46]	1 (1=low confidence (<2 MST shift unit−non-statistical))
No Binding	Cc1cccc(Nc2ncccc2C(=O)O)c1C [Compound 47]	1 (1=low confidence (<2 MST shift unit−non-statistical))
No Binding	Cc1cccc(Nc2ncccc2C(=O)OCC(O)CO)c1C (stereo not drawn) [Compound 48]	1 (1=low confidence (<2 MST shift unit−non-statistical))
	Cc1c(Cl)cccc1Nc1ncccc1C(=O)OCCCCOC(=O)c1cccnc1Nc1cccc(Cl)c1C [Compound 49]	1 (1=low confidence (<2 MST shift unit−non-statistical))
	Cc1c(Cl)cccc1Nc1ncccc1C(=O)OCCCCCOC(=O)c1cccnc1Nc1cccc(Cl)c1C [Compound 50]	3 (3=high confidence (>2 MST shift units−statistical))
	NC(=O)NC1NC(=O)NC1=O (stereo not drawn) [Compound 52]	3 (3=high confidence (>2 MST shift units−statistical))
